# Test system: NFAT, AP-1 and NFκB DNA-binding activity
# Assay: electrophoretic mobility shift assay of nuclear extracts of stimulated Th1 cells
# Format: cell-based
# Procedure: Nuclear extracts were prepared from Th1 cells, unstimulated or stimulated for 60 minutes with 500 nM ionomycin or 20 nM PMA plus 500 nM ionomycin. Binding reactions were performed as previously described (Macian et al., (2000) EMBO J. 19: […]) using NFAT, AP-1 and NF-KB specific probes (Goldfeld et al., (1993) J. Exp. Med. 178: 1365-1379).
compound,measurement,value
"C[C@H](CCC(=O)O)C[C@H](C)C[C@H](C)C(=O)/C=C(\O)[C@H](C)C[C@H](C)C/C=C/[C@@H](C)[C@@H](O)[C@@H](C)[C@@H](O)C[C@@H]1CC[C@@](C)([C@H]2CC[C@@](C)([C@@H](C)O)O2)O1 [Ionomycin, ionomycin]",AP-1 or NFκB DNA-binding activity,no increase
same,NFAT DNA-binding activity,increased

# — US20030064380A1, “Anergy-regulated molecules” (The Center For Blood Research, Inc., priority 2001, published 2003)
